Source: US9695155B2, “Herbicidal substituted pyrimidinyloxy benzene compounds” (E. I. DU PONT DE NEMOURS AND COMPANY, priority 2013, dated 2017)

Legend:
wheat [1] = test: Test A postemergence; assay type: in vivo, Triticum aestivum
Description: (§1) Seeds of plant species selected from barnyardgrass (Echinochloa crus-galli), kochia (Kochia scoparia), ragweed (common ragweed, Ambrosia elatior), Italian ryegrass (Lolium multiflorum), large (Lg) crabgrass (Digitaria sanguinalis), giant foxtail (Setaria faberii), morningglory (Ipomoea spp.), pigweed (Amaranthus retroflexus), velvetleaf (Abutilon theophrasti), wheat (Triticum aestivum), and corn (Zea mays) were planted into a blend of loam soil and sand and treated preemergence with a directed soil spray using test chemicals formulated in a non-phytotoxic solvent mixture which included a surfactant.
(§2) At the same time, plants selected from these crop and weed species and also blackgrass (Alopecurus myosuroides), and galium (catchweed bedstraw, Galium aparine) were planted in pots containing the same blend of loam soil and sand and treated with postemergence applications of test chemicals formulated in the same manner. Plants ranged in height from 2 to 10 cm and were in the one- to two-leaf stage for the postemergence treatment. Treated plants and untreated controls were maintained in a greenhouse for approximately 10 days, after which time all treated plants were compared to untreated controls and visually evaluated for injury. Plant response ratings, summarized in Table A, are based on a 0 to 100 scale where 0 is no effect and 100 is complete control. A dash (-) response means no test result.

morningglory [2] = test: Test A postemergence; assay type: in vivo, Ipomoea spp.
Description: as §1, §2

large (Lg) crabgrass [3] = test: Test A preemergence; assay type: in vivo, Digitaria sanguinalis; details: 0 to 100 scale, 0 no effect, 100 complete control; for Plant response rating, Crabgrass, Large: 1000 g ai/ha
Description: as §1, §2

barnyardgrass [4] = test: Test A preemergence; assay type: in vivo, Echinochloa crus-galli; details: 0 to 100 scale, 0 no effect, 100 complete control; for Plant response rating, Barnyardgrass: 1000 g ai/ha
Description: as §1, §2

wheat [5] = test: Test A preemergence; assay type: in vivo, Triticum aestivum; details: 0 to 100 scale, 0 no effect, 100 complete control, approx. 10 days
Description: as §1, §2

corn [6] = test: Test A postemergence; assay type: in vivo, Zea mays; details: 0 to 100 scale, 0 no effect, 100 complete control
Description: as §1, §2

pigweed [7] = test: Test A preemergence; assay type: in vivo, Amaranthus retroflexus; details: 0 to 100 scale, 0 no effect, 100 complete control, approx. 10 days
Description: as §1, §2

large (Lg) crabgrass [8] = test: Test A postemergence; assay type: in vivo, Digitaria sanguinalis; details: 0 to 100 scale, 0 no effect, 100 complete control
Description: as §1, §2

barnyardgrass [9] = test: Test A postemergence; assay type: in vivo, Echinochloa crus-galli; details: 0 to 100 scale, 0 no effect, 100 complete control
Description: as §1, §2

pigweed [10] = test: Test A postemergence; assay type: in vivo, Amaranthus retroflexus
Description: as §1, §2

giant foxtail [11] = test: Test A preemergence; assay type: in vivo, Setaria faberii; details: 0 to 100 scale, 0 no effect, 100 complete control, approx. 10 days
Description: as §1, §2

velvetleaf [12] = test: Test A postemergence; assay type: in vivo, Abutilon theophrasti
Description: as §1, §2

velvetleaf [13] = test: Test A preemergence; assay type: in vivo, Abutilon theophrasti; details: 0 to 100 scale, 0 no effect, 100 complete control, approx. 10 days
Description: as §1, §2

morningglory [14] = test: Test A preemergence; assay type: in vivo, Ipomoea spp.; details: 0 to 100 scale, 0 no effect, 100 complete control, approx. 10 days
Description: as §1, §2

corn [15] = test: Test A preemergence; assay type: in vivo, Zea mays; details: 0 to 100 scale, 0 no effect, 100 complete control; for Plant response rating, Corn: 1000 g ai/ha
Description: as §1, §2

giant foxtail [16] = test: Test A postemergence; assay type: in vivo, Setaria faberii
Description: as §1, §2

[17] = 1000 g ai/ha, 0 to 100 scale, 0 no effect, 100 complete control
[18] = 500 g ai/ha, 0 to 100 scale where 0 is no effect and 100 is complete control

SMILES	Plant response rating, Wheat (wheat [1]; [17])	Plant response rating, Morningglory (morningglory [2]; [17])	Plant response rating, Crabgrass, Large (large (Lg) crabgrass [3])	Plant response rating, Barnyardgrass (barnyardgrass [4])	Wheat plant response rating (wheat [5]; 1000 g ai/ha)	Plant response rating, Corn (corn [6]; 1000 g ai/ha)	Pigweed plant response rating (pigweed [7]; 1000 g ai/ha)	Plant response rating, Crabgrass, Large (large (Lg) crabgrass [8]; 1000 g ai/ha)	Plant response rating, Barnyardgrass (barnyardgrass [9]; 1000 g ai/ha)	Plant response rating, Pigweed (pigweed [10]; [17])	Foxtail, Giant plant response rating (giant foxtail [11]; 1000 g ai/ha)	Plant response rating, Velvetleaf (velvetleaf [12]; [17])	Velvetleaf plant response rating (velvetleaf [13]; 1000 g ai/ha)	Morningglory plant response rating (morningglory [14]; 1000 g ai/ha)	Plant response rating, Corn (corn [15])	Plant response rating, Foxtail, Giant (giant foxtail [16]; [17])	other results
N#Cc1cnn(-c2ccccc2Oc2ncc(Br)cn2)n1 [Compound 56]	0	0	80	0	0	20	100	40	30	90	30	100	90	0	20	30	
Fc1cnc(Oc2ccccc2-n2cccn2)nc1 [Compound 14]	20	70	90	30	20	20	100	30	20	100	90	90	90	20	0	40	
N#Cc1cnn(-c2ccccc2Oc2ncc(Cl)cn2)n1 [Compound 55]	0	80	90	40	0	20	90	40	10	90	90	100	100	0	0	60	
FC(F)(F)Oc1cccc(Oc2ncc(Cl)cn2)c1-n1cc(Br)cn1 [Compound 78]																	Plant response rating, Wheat (wheat [1]; [18]): 20; Plant response rating, Morningglory (morningglory [2]; [18]): 90; Crabgrass, Large plant response rating (large (Lg) crabgrass [3]; 500 g ai/ha, approx. 10 days): 100; Barnyardgrass plant response rating (barnyardgrass [4]; 500 g ai/ha, approx. 10 days): 80; Wheat plant response rating (wheat [5]; 500 g ai/ha): 10; Plant response rating, Corn (corn [6]; 500 g ai/ha): 30; Pigweed plant response rating (pigweed [7]; 500 g ai/ha): 100; Plant response rating, Crabgrass, Large (large (Lg) crabgrass [8]; 500 g ai/ha): 100; Plant response rating, Barnyardgrass (barnyardgrass [9]; 500 g ai/ha): 50; Plant response rating, Pigweed (pigweed [10]; [18]): 100; Foxtail, Giant plant response rating (giant foxtail [11]; 500 g ai/ha): 100; Plant response rating, Velvetleaf (velvetleaf [12]; [18]): 100; Velvetleaf plant response rating (velvetleaf [13]; 500 g ai/ha): 50; Morningglory plant response rating (morningglory [14]; 500 g ai/ha): 20; Corn plant response rating (corn [15]; 500 g ai/ha, approx. 10 days): 10; Plant response rating, Foxtail, Giant (giant foxtail [16]; [18]): 90
